{"source": "paper PMC4186430", "about": "“Modeling of age-dependent amyloid accumulation and γ-secretase inhibition of soluble and insoluble Aβ in a transgenic mouse model of amyloid deposition” (Pharmacology Research & Perspectives, 2013)", "key": {"[1]": {"test": "Fraction unbound in brain, rat brain slice uptake method", "format": "in vitro ADME, Sprague-Dawley rats", "conditions": "male, Sprague-Dawley, brain slices (coronal slices of striatal areas, 300 μm), observed, 1 μmol/L compound, 37°C, read-out: fu,br (brain unbound fraction)", "procedure": "Determination of the fraction of compound unbound in the brain was determined in a rat brain slice uptake method (Fridén et al. [2009]; Borgegård et al. [2011]). In short, male Sprague-Dawley rats were decapitated under isoflurane anesthesia. The brains were immersed in an ice-cold oxygenated extracellular fluid (ECF) buffer. Coronal slices of the striatal areas (300 μm) were preincubated in a 10 mL ECF buffer for 5 min at 37°C followed by incubation with 1 μmol/L compound in an ECF buffer for 5 h at 37°C under 5% CO2 in oxygen. After incubation, brain slices were weighed and homogenized in nine volumes (w/v) of ECF buffer. The slice homogenates and ECF buffer were stored at −20°C prior to analysis. To 50 μL homogenized tissue, 150 μL ice-cold acetonitrile containing an internal standard was added in a precipitation plate. After mixing and centrifugation (4°C, 4000 rpm, 20 min), supernatant was transferred to the analysis plate and analyzed by LC/MS/MS."}, "[2]": {"test_system": "insoluble Aβ40", "test": "Insoluble (FA) brain Aβ40 levels in Tg2576 mice after MRK-560, ELISA", "format": "in vivo, Tg2576 transgenic mice", "source_text": "C57BL/6 female mice (Harlan Laboratories, Horst, The Netherlands), Tg2576 transgenic female mice (Taconics, Georgetown, NY), overexpressing human APP with the Swedish mutation (Hsiao et al. [1996]), and Tg2576 wild-type littermates were used in the experiments. The C57BL/6 and wild-type littermates were only used for pharmacokinetic PK sampling and analysis. The housing environment was humidity- and temperature-controlled with a constant 12-h light/dark cycle. The animals were kept in conventional housing (5–10 mice per cage) and had access to standard rodent chow and tap water ad libitum. The transgenic mice were aged at the local AstraZeneca (AZ) animal facilities. On the day of study, the mice were weighed. MRK-560 (synthesized in-house; AZ) or vehicle was administered by oral gavage. Three types of vehicles were used: (1) 1% MCC/NaCMC (Microcrystalline Cellulose/Sodiumcarboxymethyl Cellulose) +0.6% lipoid S100, (2) 20% HPβCD in 0.1 mol/L Meglumine, and (3) 40% HPβCD in 0.3 mol/L Meglumine. Observations of the animals’ health were made throughout all the experiments. Data from 23 MRK-560 studies were used in this analysis and details of all studies can be found in Table 1. For the AP analysis, data from vehicle and untreated Tg2576 mice from 48 additional (i.e., non-MRK-560) in-house studies were used. The additional dataset consisted of Aβ levels measured in Tg2576 mice of various ages, between 3.5 and 26 months at termination. Details of those data can be found in Appelkvist et al. ([2011]). In total, data from 71 preclinical studies were used.\nAfter blood sampling, mice were sacrificed by decapitation followed by brain samples collection. Cerebellum and olfactory bulbs were removed and the forebrain was divided into left and right hemispheres, weighed, and snap frozen.\nLeft hemisphere of the cerebrum was sequentially extracted by diethylamine (DEA) followed by formic acid (FA) to obtain soluble and insoluble fractions of Aβ species, respectively. In short, brain tissue was sonicated in 1:18 (w/v) 0.2% DEA and 50 mmol/L NaCl, pH 11.6. After centrifugation (133,000g, 4°C, 1 h), the supernatant (soluble Aβ) was recovered, neutralized to a pH of 8.0 using 2 mol/L Tris-HCl, and immediately frozen to -70°C. The remaining pellet was sonicated in 1:18 (w/v) 70% FA. Homogenates were centrifuged at +4°C for 1 h at 133,000g. Recovered supernatants (insoluble Aβ) were neutralized to pH 7.5 with 1 mol/L Tris at 1:20 (w/v) dilutions, frozen on dry ice, and stored at −70°C until analysis.\nAmyloid beta (Aβ40) and Aβ42 concentrations were measured in plasma, in soluble (DEA), and insoluble (FA) brain fractions using commercial sandwich ELISA kits (KHB3482 from Invitrogen, Carlsbad, CA, and RUO80177 from Innogenetics, Gent, Belgium). To compensate for matrix effects, plasma or brain homogenates from non-transgenic mice were used for preparation of standard curves. The lower and higher limits of quantification (LLOQ and HLOQ) were determined for each immunoassay plate based on the lowest and highest standard point, respectively. The coefficient of variation was less than20% and the accuracy was between 80% and 120%.\nStatistical comparisons of the vehicle and MRK-560 treatment data were made by unpaired t-tests. The level of significance was set at P < 0.05. All analyses were performed using GraphPad Prism (GraphPad Prism Software Inc., San Diego, CA) and results were reported as mean ± SEM."}, "[3]": {"test_system": "soluble Aβ40", "set-up": "method as in Townsend et al. [2010]", "conditions": "12-month-old Tg2576 mice; 3-month MRK-560 treatment; ref Townsend et al. [2010]; cited from earlier work"}, "[4]": {"test_system": "total Aβ40", "set-up": "method as in Best et al. [2007]", "conditions": "12-month-old Tg2576 mice; ref Best et al. [2007]; cited from earlier work"}}, "note": "Marks after values point to notes of the source that are not given here."}
{"molecule": "O=S(=O)(NC1CCC(c2cc(F)ccc2F)(S(=O)(=O)c2ccc(Cl)cc2)CC1)C(F)(F)F", "note": "(stereo not drawn) [MRK-560, N-[cis-4-[(4-chlorophenyl)-sulfonyl]-4-(2,5-difluorophenyl)cyclohexyl]-1,1,1-trifluoromethanesulfonamide]", "values": [{"measurement": "fraction unbound at 5 h, 1 μmol/L", "setting": "[1]", "value": 0.0067}, {"measurement": "Effect on insoluble Aβ40", "setting": "[2]; study 8, Tg2576, 24 weeks at start, 0.5 μmol/kg p.o., 30 days, 3 h since last dosing", "value": "−8", "unit": "%"}, {"measurement": "Effect on insoluble Aβ40", "setting": "[2]; study 8, Tg2576, 24 weeks at start, 6 μmol/kg p.o., 30 days, 3 h since last dosing, P < 0.05", "value": "−57 ^* %"}, {"measurement": "Effect on insoluble Aβ40", "setting": "[2]; study 9, Tg2576, 24 weeks at start, 0.5 μmol/kg p.o., 94 days, 3 h since last dosing", "value": 3, "unit": "%"}, {"measurement": "Effect on insoluble Aβ40", "setting": "[2]; study 9, Tg2576, 24 weeks at start, 6 μmol/kg p.o., 94 days, 3 h since last dosing", "value": 32, "unit": "%"}, {"measurement": "Effect on insoluble Aβ40", "setting": "[2]; study 10, Tg2576, 24 weeks at start, 1 μmol/kg p.o., 29 days, 3 h since last dosing, P < 0.05", "value": "−40 ^* %"}, {"measurement": "Effect on insoluble Aβ40", "setting": "[2]; study 10, Tg2576, 24 weeks at start, 3 μmol/kg p.o., 29 days, 3 h since last dosing, P < 0.05", "value": "−42 ^* %"}, {"measurement": "Effect on insoluble Aβ40", "setting": "[2]; study 10, Tg2576, 24 weeks at start, 6 μmol/kg p.o., 29 days, 3 h since last dosing, P < 0.05", "value": "−69 ^* %"}, {"measurement": "Effect on insoluble Aβ40", "setting": "[2]; study 11, Tg2576, 24 weeks at start, 6 μmol/kg p.o., 30 days, 3 h since last dosing, P < 0.05", "value": "−31 ^* %"}, {"measurement": "Effect on insoluble Aβ40", "setting": "[2]; study 15, Tg2576, 36 weeks at start, 6 μmol/kg p.o., vehicle 3, 8 days, 3 h since last dosing", "value": 2, "unit": "%"}, {"measurement": "Effect on insoluble Aβ40", "setting": "[2]; study 17, Tg2576, 68 weeks at start, 6 μmol/kg p.o., 4 days, 3 h since last dosing", "value": "−7.6", "unit": "%"}, {"measurement": "Effect on insoluble Aβ40", "setting": "[2]; study 20, Tg2576, 32 weeks at start, 30 μmol/kg p.o., 21 days, 4.5 h since last dosing", "value": "−70", "unit": "%"}, {"measurement": "Effect on insoluble Aβ40", "setting": "[2]; study 21, Tg2576, 36 weeks at start, 6 μmol/kg p.o., vehicle 3, 8 days, 3 h since last dosing", "value": "−30", "unit": "%"}, {"measurement": "Effect on insoluble Aβ40", "setting": "[2]; study 22, Tg2576, 24–28 weeks at start, 30 μmol/kg p.o., 45 days, 4.5 h since last dosing, P < 0.05", "value": "−57 ^* %"}, {"measurement": "Effect on insoluble Aβ40", "setting": "[2]; study 23, Tg2576, 37–40 weeks at start, 30 μmol/kg p.o., 28 days, 4.5 h since last dosing, P < 0.05", "value": "−67 ^* %"}, {"measurement": "decrease in soluble Aβ40 levels", "setting": "[3]", "value": 63, "unit": "%"}, {"measurement": "decrease in total Aβ40 levels", "setting": "[4]", "value": 43, "unit": "%"}]}
